# Entries after “also recorded” stand apart in the source; their conditions may differ. Read-outs that look alike come from different tables or passages of the source.
# Tests used:
# [1] = human, in vivo; cited from earlier work
# Topoisomerase I = biological target: T1, Topoisomerase I (Homo sapiens, UniProt P11387); test: Topoisomerase I inhibition; format: biochemical
# T1 sequence (P11387 1-765): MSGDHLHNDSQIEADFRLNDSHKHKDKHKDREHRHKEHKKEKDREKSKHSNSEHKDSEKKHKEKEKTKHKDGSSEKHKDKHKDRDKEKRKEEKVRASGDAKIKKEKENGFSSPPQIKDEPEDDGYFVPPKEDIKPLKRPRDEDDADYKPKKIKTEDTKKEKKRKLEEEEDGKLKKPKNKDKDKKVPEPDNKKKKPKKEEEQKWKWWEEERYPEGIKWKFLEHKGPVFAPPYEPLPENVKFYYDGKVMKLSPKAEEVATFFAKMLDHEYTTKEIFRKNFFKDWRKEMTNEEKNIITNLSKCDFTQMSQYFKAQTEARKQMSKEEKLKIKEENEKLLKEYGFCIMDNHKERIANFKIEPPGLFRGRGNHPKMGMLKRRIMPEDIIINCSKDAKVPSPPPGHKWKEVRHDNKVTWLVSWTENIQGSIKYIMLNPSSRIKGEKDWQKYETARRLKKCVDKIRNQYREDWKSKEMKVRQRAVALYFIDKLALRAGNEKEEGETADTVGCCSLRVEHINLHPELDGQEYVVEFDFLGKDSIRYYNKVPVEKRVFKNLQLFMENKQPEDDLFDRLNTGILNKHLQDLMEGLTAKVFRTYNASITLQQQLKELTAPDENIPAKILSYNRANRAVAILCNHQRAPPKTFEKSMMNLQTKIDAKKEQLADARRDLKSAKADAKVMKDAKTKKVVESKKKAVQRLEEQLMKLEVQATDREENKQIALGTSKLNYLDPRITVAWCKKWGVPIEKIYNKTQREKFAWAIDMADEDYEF
# [2] = Glucuronidation / metabolism; format: in vitro ADME
# [3] = human, in vivo
# Description: The primary endpoint was Progression Free Survival (PFS); defined as the time period from the date of randomization to the date of first radiographically documented progressive disease (PD) or date of death due to any cause, taking the event date that occurs first. The date of PD was determined by radiographically objective disease (RECIST) measurement. […]
# Simultaneous statistical analyses were performed on the clinical trial data from the time points when 254 and 338 Progression Free Survival (PFS) events occurred during the aforementioned Karenitecin Phase III Trial and the following results were observed. […] The PFS benefit for Karenitecin in comparison to Topotecan was determined using an Independent Review Committee (IRC).
# [4] = test system: MDR/MRP, Breast Cancer Resistance Protein (BCRP); conditions: cited from earlier work
# [5] = test system: stage III/IV advanced epithelial ovarian cancer resistant or refractory to platinum- and taxane-based chemotherapy; test: Phase III clinical study of Karenitecin versus Topotecan: efficacy (PFS, OS); format: in vivo, human
# Description: The Primary Endpoint of the disclosed Phase III clinical study was Progression Free Survival (“PFS”); which was defined as the time period from the date of randomization to the date of first radiographically documented Progressive Disease (“PD”) or date of death due to any cause, taking either event date that occurred first. The date of PD was determined by radiographical objective disease (RECIST) measurement method. The Secondary Endpoints of the disclosed Phase III clinical study included: (i) Overall Survival (hereinafter “OS”), defined as the time from the date of randomization to the date of death due to any cause; (ii) Incidence of anemia, defined as the proportion of patients who experience ≥grade 3 anemia based on National Cancer Institute Common Terminology Criteria for Adverse Events (NCI-CTCAE) criteria at any time post-baseline after receiving study treatment; (iii) Incidence of neutropenia (including febrile neutropenia), defined as the proportion of patients who experience ≥grade 3 neutropenia based on NCI-CTCAE criteria at any time post-baseline after receiving study treatment; and (iv) Incidence of thrombocytopenia, defined as the proportion of patients who experience ≥grade 3 thrombocytopenia based on NCI-CTCAE criteria at any time post-baseline after receiving study treatment.
# All patients admitted to this Phase III clinical trial were documented to be platinum- and/or taxane-resistant or refractory and have incurable disease. […] It is important to note that, currently, there is no FDA-approved chemotherapeutic drug for this specific aforementioned indication.
# Approximately 80 study centers participated in this Phase III clinical study. The primary endpoint was Progression Free Survival (PFS), defined as the time period from the date of randomization to the date of first radiographically documented progressive disease or disease progression (“PD”) or date of death due to any cause, taking the event date that occurs first.
# The primary endpoint was Progression Free Survival (PFS); defined as the time period from the date of randomization to the date of first radiographically documented progressive disease (PD) or date of death due to any cause, taking the event date that occurs first. The date of PD was determined by radiographically objective disease (RECIST) measurement. Secondary Endpoints: • Overall Survival (OS), defined as the time from the date of randomization to the date of death due to any cause. • Incidence of anemia, defined as the proportion of patients who experience ≥grade 3 anemia based on National Cancer Institute Common Terminology Criteria for Adverse Events (NCI-CTCAE) criteria at any time post-baseline after receiving study treatment. • Incidence of neutropenia (including febrile neutropenia), defined as the proportion of patients who experience ≥grade 3 neutropenia based on NCI-CTCAE criteria at any time post-baseline after receiving study treatment. • Incidence of thrombocytopenia, defined as the proportion of patients who experience ≥grade 3 thrombocytopenia based on NCI-CTCAE criteria at any time post-baseline after receiving study treatment.
# Patients underwent procedures throughout four (4) defined periods in this study, which are briefly described below. Various clinical, laboratory, and disease evaluations were required for each of these for each periods.
# Period I (Screening and Randomization): Patient eligibility was determined by compliance with protocol-specified inclusion and exclusion criteria. Patients who signed the informed consent, and successfully complete the screening process, including documentation of disease status by radiographic measures, were randomized to receive study treatment.
# Period III (End of Treatment): Within ±3 days of date of treatment discontinuation, end-of treatment procedures will be conducted during Period III.
# [6] = test system: panel of over twenty (20) human cancer cell lines; test: In vitro studies on a panel of human cancer cell lines; format: cell-based
# [7] = dog, in vivo, po
# [8] = Preclinical toxicology, oral single daily doses for five consecutive days; conditions: beagle dogs
# [9] = in vivo, iv
# [10] = Phase I clinical studies of intravenous Karenitecin (safety, dose-limiting toxicity); format: in vivo, human
# Description: Results from three Phase I studies indicate that Karenitecin can be safely administered to patients at the dose level of 1.0 mg/m^2/day I.V. over a one hour period of time for 5 consecutive days in a 3-week treatment cycle. […] Any gastrointestinal toxicity is generally ≤grade 2 and is not dose-limiting.
# Intravenous administration of Karenitecin has been evaluated in three Phase I clinical studies in patients with the following cancer types: (i) advanced solid tumors (adult patients) (see, e.g., Schilsky, R. L., Hausheer, F. H., et al., Phase I trial of Karenitecin administered intravenously daily for five consecutive days in patients with advanced solid tumors using accelerated dose titration [abstract]. ASCO Abstract 758 (2000)); (ii) refractory or recurrent solid tumors (pediatric patients); and (iii) recurrent malignant glioma (adult patients). […]
# advanced ovarian cancer = test: Phase II study in advanced ovarian cancer patients who had failed prior treatments; format: in vivo, human
# Text: Intravenous administration of Karenitecin has been evaluated in three Phase I clinical studies in patients with the following cancer types: (i) advanced solid tumors (adult patients) (see, e.g., Schilsky, R. L., Hausheer, F. H., et al., Phase I trial of Karenitecin administered intravenously daily for five consecutive days in patients with advanced solid tumors using accelerated dose titration [abstract]. ASCO Abstract 758 (2000)); (ii) refractory or recurrent solid tumors (pediatric patients); and (iii) recurrent malignant glioma (adult patients). Intravenous administration of Karenitecin has also been evaluated in four Phase 2 clinical studies in adult patients with the following cancer types: (i) primary malignant glioma; (ii) treatment of persistent or recurrent epithelial ovarian or primary peritoneal carcinoma in heavily pre-treated patients; (iii) malignant melanoma (see, e.g., Hausheer, F. H., et al., Phase II trial of Karenitecin (BNP1350) in malignant melanoma: clinical and translational study [abstract]. ASCO Abstract 7554 (2004); and (iv) relapsed or refractory non-small cell lung cancer (see, e.g., Miller, A. A., et al., MR for the Cancer and Leukemia Group B. Phase II trial of Karenitecin in patients with relapsed or refractory advanced non-small cell lung cancer (CALGB 30004) Lung Cancer 48:399-407 (2005)).
# [11] = Lactone stability and lactone half-life in humans/plasma; format: in vivo, human
# [12] = test system: MDR/MRP, Breast Cancer Resistance Protein (BCRP)
# [13] = test system: resistant subline of cells containing less than 4% of the topoisomerase I activity; conditions: subline with <4% topoisomerase I activity; cited from earlier work
# MDR-expressing sublines = conditions: P-glycoprotein-associated MDR phenotype; cited from earlier work
structure (smiles),measurement,setting,value
Nc1ccn([C@@H]2O[C@H](CO)[C@@H](O)C2(F)F)c(=O)n1 [Gemcitabine],patients with neutropenia,[1],up to 90%
"CC[C@@]1(O)C(=O)OCc2c1cc1n(c2=O)Cc2c-1nc1ccccc1c2CC[Si](C)(C)C [Karenitecin, (4S)-4-ethyl-4-hydroxy-11-[2-(trimethylsilyl)ethyl]-1H-pyrano[3′:4′:6,7]indolizino[1,2-b]quinoline-3,14(4H,12H)-dione]",Topoisomerase I inhibition,Topoisomerase I,potent inhibitor of Topoisomerase I
same,A-ring or B-ring glucuronidation,[2],does not undergo A-ring or B-ring glucuronidation
same,Grade 3 or 4 anemia events reduced in comparison to the Topotecan arm,"[3]; female, 5 days",27.3%
same,Grade 3 or 4 thrombocytopenia events reduced in comparison to the Topotecan arm,"[3]; female, 5 days",37.4%
same,grade 4 neutropenia reduced in comparison to the Topotecan arm,"[3]; female, 5 days",38.2%
same,safety concerns as monitored by the independent Data and Safety Monitoring Board (DSMB),[3],no safety concerns related to Karenitecin were noted
same,sensitivity to tumor-mediated drug resistance mechanisms including BCRP,[4],insensitive to all commonly-known tumor-mediated drug resistance mechanisms
same,"overall survival hazard ratio, Karenitecin vs Topotecan","[5]; Adenocarcinoma (grade ≥2) not otherwise specified, P-value 0.7893",0.898
same,"PFS HR, Karenitecin vs Topotecan","[5]; Adenocarcinoma (grade ≥2) not otherwise specified, P-value=0.3700",0.684
same,"PFS HR, Karenitecin vs Topotecan","[5]; Best response SD after 6 cycles in a first-line setting, P-value=0.9908",0.992
same,"PFS HR, Karenitecin vs Topotecan","[5]; ECOG Performance Status 0, P-value=0.0249",0.662
same,"PFS HR, Karenitecin vs Topotecan","[5]; ECOG Performance Status 2, P-value=0.7481",0.896
same,"PFS HR, Karenitecin vs Topotecan","[5]; FIGO Stage 111B, P-value=0.6225",0.722
same,"overall survival hazard ratio, Karenitecin vs Topotecan","[5]; FIGO Stage IV, P-value 0.4516",0.892
same,"PFS HR, Karenitecin vs Topotecan","[5]; FIGO Stage IV, all events, P-value=0.0556",0.741
same,"PFS HR, Karenitecin vs Topotecan","[5]; FIGO Stage IV, first 254 PFS events, P-value=0.0260",0.669
same,"overall survival hazard ratio, Karenitecin vs Topotecan","[5]; Histological Stage: G1-well differentiated, P-value 0.974",0.9612
same,"PFS HR, Karenitecin vs Topotecan","[5]; Histological Stage: G1-well differentiated, P-value=0.8561",0.904
same,"PFS HR, Karenitecin vs Topotecan","[5]; Histological Stage: G2-moderately differentiated, P-value=0.2982",0.835
same,"overall survival hazard ratio, Karenitecin vs Topotecan","[5]; Histopathology Class: Undifferentiated carcinoma, P-value 0.701",0.6426
same,median PFS advantage in favor of Karenitecin,[5]; Histopathology class: Mucinous adenocarcinoma subtype,2 month
same,"overall survival hazard ratio, Karenitecin vs Topotecan","[5]; Histopathology class: Mucinous adenocarcinoma, P-value 0.7321",0.841
same,"PFS HR, Karenitecin vs Topotecan","[5]; Histopathology class: serous adenocarcinoma, P-value=0.2829",0.873
same,"PFS HR, Karenitecin vs Topotecan","[5]; Ovary as primary site of disease, P-value=0.2606",0.885
same,median progression-free survival (PFS) advantage in favor of Karenitecin (as compared with Topotecan),"[5]; overall trial population, IRC",greater than 6 week
same,"PFS Hazard Ratio (HR), Karenitecin vs Topotecan","[5]; overall trial population, P-value=0.261",0.885
same,"PFS HR, Karenitecin vs Topotecan","[5]; resistant subject sub-population, P-value=0.144",0.822
same,"PFS HR, Karenitecin vs Topotecan","[5]; subpopulation refractory or resistant and/or mucinous, first 254 PFS events, P-value=0.0849",0.770
same,concentrations for inhibiting the growth of human and animal tumor cells in vitro,[6],nanomolar or sub-nanomolar concentrations
same,antitumor potency compared with Topotecan or SN-38,[6]; over twenty human cancer cell lines,significantly more potent antitumor agent than either Topotecan or SN-38
same,toxicities observed,[7],anorexia; weight loss; gastrointestinal toxicity (manifested as diarrhea with hemorrhage); occasional vomiting; and myelosuppression
same,oral MTD relative to intravenous (I.V.) MTD,[8],approximately 2 times
same,toxicities observed,[9],"reversible myelosuppression (predominantly neutropenia), diarrhea, emesis and mucositis (canine)"
same,principal and dose-limiting toxicity,"[10]; Phase I, 1.0 mg/m^2/day I.V. over one hour, 5 consecutive days, 3-week cycle","non-cumulative, reversible myelosuppression; also recorded: reversible and non-cumulative neutropenia and thrombocytopenia"
same,serious hypersensitivity reactions reported by patients,[10]; patients receiving Karenitecin to date,no serious hypersensitivity reactions
same,Time to Progression (TTP) compared with historical results reported with Topotecan,advanced ovarian cancer,prolonged Time to Progression (TTP)
same,half-life in active lactone form in plasma compared with other commercially-available camptothecins,[11],longer half-life in its active lactone form in plasma
same,susceptibility to MDR/MRP drug resistance,[12],lacks susceptibility to MDR/MRP drug resistance
CC[C@@]1(O)C(=O)OCc2c1cc1n(c2=O)Cc2cc3ccccc3nc2-1 [camptothecin],decrease in sensitivity of resistant subline versus wild-type parental cells,[13],1000 fold
COc1cccc2c1C(=O)c1c(O)c3c(c(O)c1C2=O)C[C@@](O)(C(=O)CO)C[C@@H]3O[C@H]1C[C@H](N)[C@H](O)[C@H](C)O1 [doxorubicin],resistance of MDR-expressing sublines relative to parental wild-type cells,MDR-expressing sublines,200 fold
COc1cc([C@@H]2c3cc4c(cc3[C@@H](O[C@@H]3O[C@@H]5CO[C@@H](C)O[C@H]5[C@H](O)[C@H]3O)[C@H]3COC(=O)[C@H]23)OCO4)cc(OC)c1O [etoposide],resistance of MDR-expressing sublines relative to parental wild-type cells,MDR-expressing sublines,200 fold

# From patent US10413538B2, “Administration of karenitecin for the treatment of platinum and/or taxane chemotherapy-resistant or -refractory advanced ovarian cancer” (priority 2013, dated 2019)
